Earlier results as cited in patent US20120065140A1, “Biomarkers for the Diagnosis of Autoimmune Disease” (priority 2010, published 2012).

CN(Cc1cnc2nc(N)nc(N)c2n1)c1ccc(C(=O)N[C@@H](CCC(=O)O)C(=O)O)cc1 [MTX, Methotrexate]
onset of action (rheumatoid arthritis): 4-6 weeks
patients having some response (rheumatoid arthritis patients): 70%
